{"source": "paper PMC5218480", "about": "(PLoS ONE, 2017)", "test_system": "MV-4-11 cells", "experiment": "Gene expression microarray analysis (Affymetrix PrimeView) and GSEA", "assay_type": "cell-based, human", "parameters": "RFU PODN (11730768_x_at) / Fold change /veh PODN (11730768_x_at) / RFU LINC00158 (11744669_a_at) / Fold change /veh LINC00158 (11744669_a_at) / RFU DUSP10 (11751237_a_at) / Fold change /veh DUSP10 (11751237_a_at) / RFU ID3 (11757404_x_at) / Fold change /veh ID3 (11757404_x_at) / RFU PLEKHG5 (11737974_s_at) / Fold change /veh PLEKHG5 (11737974_s_at) / RFU LRRC4B (11730491_at) / Fold change /veh LRRC4B (11730491_at) / RFU GIMAP4 (11747438_a_at) / Fold change /veh GIMAP4 (11747438_a_at) / RFU KRT8 (11758183_x_at) / Fold change /veh KRT8 (11758183_x_at) / RFU CNN1 (11734310_a_at) / Fold change /veh CNN1 (11734310_a_at) / RFU VPS37D (11726825_at) / Fold change /veh VPS37D (11726825_at) / RFU C10orf10 (11716522_x_at) / Fold change /veh C10orf10 (11716522_x_at) / RFU KIR2DL2 /// KIR2DL4 /// KIR2DL5A /// KIR2DL5B /// KIR2DS1 /// KIR2DS2 /// KIR2DS3 /// KIR2DS4 /// KIR3DL3 /// KIR3DL3 /// KIR3DS1 (11738374_at) / Fold change /veh KIR2DL2 /// KIR2DL4 /// KIR2DL5A /// KIR2DL5B /// KIR2DS1 /// KIR2DS2 /// KIR2DS3 /// KIR2DS4 /// KIR3DL3 /// KIR3DL3 /// KIR3DS1 (11738374_at) / RFU C1QL1 (11718748_at) / Fold change /veh C1QL1 (11718748_at) / RFU TMPRSS4 (11747572_a_at) / Fold change /veh TMPRSS4 (11747572_a_at) / RFU HAMP (11756126_x_at) / Fold change /veh HAMP (11756126_x_at) / RFU RNFT2 (11725882_a_at) / Fold change /veh RNFT2 (11725882_a_at) / RFU NR4A2 (11747474_a_at) / Fold change /veh NR4A2 (11747474_a_at) / RFU ABCC12 (11746883_a_at) / Fold change /veh ABCC12 (11746883_a_at) / RFU TMEM136 (11760407_x_at) / Fold change /veh TMEM136 (11760407_x_at) / RFU CLDN22 /// WWC2 (11732394_at) / Fold change /veh CLDN22 /// WWC2 (11732394_at) / RFU HLA-DPB1 (11760878_x_at) / Fold change /veh HLA-DPB1 (11760878_x_at) / RFU SPINT1 (11716480_a_at) / Fold change /veh SPINT1 (11716480_a_at) / RFU GAP43 (11754022_s_at) / Fold change /veh GAP43 (11754022_s_at) / RFU A4GNT (11735810_at) / Fold change /veh A4GNT (11735810_at) / RFU PRB3 (11715151_x_at) / Fold change /veh PRB3 (11715151_x_at) / RFU TUBB4B (11761932_at) / Fold change /veh TUBB4B (11761932_at) / RFU CAPN14 (11732068_a_at) / Fold change /veh CAPN14 (11732068_a_at) / RFU TMCC2 (11721928_a_at) / Fold change /veh TMCC2 (11721928_a_at) / RFU IRGQ (11745062_a_at) / Fold change /veh IRGQ (11745062_a_at) / RFU FAM174B (11720279_a_at) / Fold change /veh FAM174B (11720279_a_at) / RFU TMPRSS4 (11748680_a_at) / Fold change /veh TMPRSS4 (11748680_a_at) / RFU FAM212B (11763350_a_at) / Fold change /veh FAM212B (11763350_a_at) / RFU PLEKHG5 (11743358_a_at) / Fold change /veh PLEKHG5 (11743358_a_at) / RFU ZSCAN30 (11745921_a_at) / Fold change /veh ZSCAN30 (11745921_a_at) / RFU CMKLR1 (11741424_a_at) / Fold change /veh CMKLR1 (11741424_a_at) / RFU LOC101060620 /// MAPK8IP1 (11723275_at) / Fold change /veh LOC101060620 /// MAPK8IP1 (11723275_at) / RFU SPTSSB (11747773_x_at) / Fold change /veh SPTSSB (11747773_x_at) / RFU PRSS12 (11739890_at) / Fold change /veh PRSS12 (11739890_at) / RFU BIN1 (11741810_x_at) / Fold change /veh BIN1 (11741810_x_at) / RFU WNT11 (11732464_a_at) / Fold change /veh WNT11 (11732464_a_at) / RFU C10orf10 (11716521_a_at) / Fold change /veh C10orf10 (11716521_a_at) / RFU C5orf56 (11738089_at) / Fold change /veh C5orf56 (11738089_at) / RFU CYB561 (11721691_x_at) / Fold change /veh CYB561 (11721691_x_at) / RFU ANKRD19P (11752326_a_at) / Fold change /veh ANKRD19P (11752326_a_at) / RFU OR2T12 /// OR2T33 /// OR2T8 (11738714_s_at) / Fold change /veh OR2T12 /// OR2T33 /// OR2T8 (11738714_s_at) / RFU VCAN (11748164_a_at) / Fold change /veh VCAN (11748164_a_at) / RFU JSRP1 (11732532_at) / Fold change /veh JSRP1 (11732532_at) / RFU KRTAP10-11 (11738290_x_at) / Fold change /veh KRTAP10-11 (11738290_x_at) / RFU MYO3A (11730013_a_at) / Fold change /veh MYO3A (11730013_a_at) / RFU EBF3 (11725865_a_at) / Fold change /veh EBF3 (11725865_a_at) / RFU CAMK2N1 (11719241_x_at) / Fold change /veh CAMK2N1 (11719241_x_at) / RFU C5orf56 (11738088_a_at) / Fold change /veh C5orf56 (11738088_a_at) / RFU OLFML3 (11715873_a_at) / Fold change /veh OLFML3 (11715873_a_at) / RFU LOC100653217 /// NTM (11731650_a_at) / Fold change /veh LOC100653217 /// NTM (11731650_a_at) / RFU MAPK11 (11762145_a_at) / Fold change /veh MAPK11 (11762145_a_at) / RFU FIZ1 (11724087_x_at) / Fold change /veh FIZ1 (11724087_x_at) / RFU OASL (11726364_x_at) / Fold change /veh OASL (11726364_x_at) / RFU SOX15 (11748057_x_at) / Fold change /veh SOX15 (11748057_x_at) / RFU CD79A (11719716_a_at) / Fold change /veh CD79A (11719716_a_at) / RFU HIST1H1D (11736915_at) / Fold change /veh HIST1H1D (11736915_at) / RFU CASKIN2 (11723855_a_at) / Fold change /veh CASKIN2 (11723855_a_at) / RFU LOC730098 (11760151_x_at) / Fold change /veh LOC730098 (11760151_x_at) / RFU OR4N2 (11742367_at) / Fold change /veh OR4N2 (11742367_at) / RFU PRRT2 (11749266_a_at) / Fold change /veh PRRT2 (11749266_a_at) / RFU SNX32 (11753110_a_at) / Fold change /veh SNX32 (11753110_a_at) / RFU CDHR5 (11726645_a_at) / Fold change /veh CDHR5 (11726645_a_at) / RFU RCAN1 (11760418_a_at) / Fold change /veh RCAN1 (11760418_a_at) / RFU FAM167A (11723789_a_at) / Fold change /veh FAM167A (11723789_a_at) / RFU FAM26E (11764081_at) / Fold change /veh FAM26E (11764081_at) / RFU ISYNA1 (11749810_s_at) / Fold change /veh ISYNA1 (11749810_s_at) / RFU ACY1 (11761880_at) / Fold change /veh ACY1 (11761880_at) / RFU 11764098_at / Fold change /veh 11764098_at / RFU SAMD14 (11745864_x_at) / Fold change /veh SAMD14 (11745864_x_at) / RFU NPB (11741838_a_at) / Fold change /veh NPB (11741838_a_at) / RFU TMPRSS6 (11731388_a_at) / Fold change /veh TMPRSS6 (11731388_a_at) / RFU KRTAP10-2 (11738614_at) / Fold change /veh KRTAP10-2 (11738614_at) / RFU ARHGAP8 /// PRR5-ARHGAP8 (11727945_x_at) / Fold change /veh ARHGAP8 /// PRR5-ARHGAP8 (11727945_x_at) / RFU KRTAP5-7 /// NADSYN1 (11734609_at) / Fold change /veh KRTAP5-7 /// NADSYN1 (11734609_at) / RFU RASL12 (11751679_a_at) / Fold change /veh RASL12 (11751679_a_at) / RFU CDKN2B (11736163_a_at) / Fold change /veh CDKN2B (11736163_a_at) / RFU PRF1 (11729649_at) / Fold change /veh PRF1 (11729649_at) / RFU, ZNF638 /// ZNF638-IT1 / Fold change vs veh, ZNF638 /// ZNF638-IT1 / RFU, PANK3 / Fold change vs veh, PANK3 / RFU, SH3YL1 / Fold change vs veh, SH3YL1 / RFU, ZEB2 / Fold change vs veh, ZEB2 / RFU, NRIP1 / Fold change vs veh, NRIP1 / RFU, PTTG1IP / Fold change vs veh, PTTG1IP / RFU, CAPN2 / Fold change vs veh, CAPN2 / RFU, MED14 / Fold change vs veh, MED14 / RFU, SNORA58 / Fold change vs veh, SNORA58 / RFU, C1orf63 / Fold change vs veh, C1orf63 / RFU, LRRFIP1 / Fold change vs veh, LRRFIP1 / RFU, NDUFAF7 / Fold change vs veh, NDUFAF7 / RFU, SLC12A2 / Fold change vs veh, SLC12A2 / RFU, IBTK / Fold change vs veh, IBTK / RFU, ESF1 / Fold change vs veh, ESF1 / Fold change vs veh, TMEM50B / RFU, TAOK1 / Fold change vs veh, TAOK1 / RFU, ACBD3 / Fold change vs veh, ACBD3 / RFU, TMA16 / Fold change vs veh, TMA16 / RFU, RWDD3 / Fold change vs veh, RWDD3 / RFU, BCAT1 / Fold change vs veh, BCAT1 / RFU, EDEM3 / Fold change vs veh, EDEM3 / RFU, TMEM33 / Fold change vs veh, TMEM33 / RFU, WDR75 / Fold change vs veh, WDR75 / RFU, AHCTF1 / Fold change vs veh, AHCTF1 / RFU, TFRC / Fold change vs veh, TFRC / RFU, ZDHHC17 / Fold change vs veh, ZDHHC17 / RFU, NOM1 / Fold change vs veh, NOM1 / RFU, ARL8B / Fold change vs veh, ARL8B / RFU, ZBTB11 / Fold change vs veh, ZBTB11 / RFU, TAMM41 / Fold change vs veh, TAMM41 / RFU, KIAA1704 /// LOC100996395 / Fold change vs veh, KIAA1704 /// LOC100996395 / RFU, ING1 / Fold change vs veh, ING1 / RFU, TRMT61B / Fold change vs veh, TRMT61B / RFU, FUBP3 / Fold change vs veh, FUBP3 / RFU, TP53 / Fold change vs veh, TP53 / RFU, TNKS2 / Fold change vs veh, TNKS2 / RFU, ZFP14 / Fold change vs veh, ZFP14 / RFU, ACTR2 / Fold change vs veh, ACTR2 / RFU, PPP3R1 / Fold change vs veh, PPP3R1 / RFU, PIK3R1 / Fold change vs veh, PIK3R1 / RFU, HNRNPA1 / Fold change vs veh, HNRNPA1 / RFU, RNF170 / Fold change vs veh, RNF170 / RFU, ZNF28 / Fold change vs veh, ZNF28 / RFU, RNGTT / Fold change vs veh, RNGTT / RFU, OGT / Fold change vs veh, OGT / RFU, BRD1 / Fold change vs veh, BRD1 / RFU, MARS / Fold change vs veh, MARS / RFU, ZNF655 / Fold change vs veh, ZNF655 / RFU, FAHD1 / Fold change vs veh, FAHD1 / RFU, BDP1 / Fold change vs veh, BDP1 / RFU, LRRCC1 / Fold change vs veh, LRRCC1 / RFU, ARID1A / Fold change vs veh, ARID1A / RFU, ZNF146 / Fold change vs veh, ZNF146 / RFU, ZNF330 / Fold change vs veh, ZNF330 / RFU, GPN3 / Fold change vs veh, GPN3 / RFU, C9orf123 / Fold change vs veh, C9orf123 / RFU, N4BP2L2 / Fold change vs veh, N4BP2L2 / RFU, ARFIP1 / Fold change vs veh, ARFIP1 / RFU, FAM179B / Fold change vs veh, FAM179B / RFU, BCL10 / Fold change vs veh, BCL10 / RFU, UHRF1BP1L / Fold change vs veh, UHRF1BP1L / RFU, BET1 / Fold change vs veh, BET1 / RFU, CNOT2 / Fold change vs veh, CNOT2 / RFU, ZNF268 / Fold change vs veh, ZNF268 / Fold change vs veh, ZNF507 / RFU, DGCR2 / Fold change vs veh, DGCR2 / RFU, WDSUB1 / Fold change vs veh, WDSUB1 / Fold change vs veh, HSP90B1 /// MIR3652 / RFU, ADSS / Fold change vs veh, ADSS / RFU, GK / Fold change vs veh, GK / RFU, ZNF148 / Fold change vs veh, ZNF148 / RFU, TAF9 / Fold change vs veh, TAF9 / RFU, SLC1A5 / Fold change vs veh, SLC1A5 / RFU, SLMO2 / Fold change vs veh, SLMO2 / RFU, ABCC4 / Fold change vs veh, ABCC4 / RFU, LOC101060439 /// RAP1B / Fold change vs veh, LOC101060439 /// RAP1B / RFU, RFX7 / Fold change vs veh, RFX7 / RFU, GTPBP10 / Fold change vs veh, GTPBP10 / RFU, CNEP1R1 / Fold change vs veh, CNEP1R1 / RFU, BIVM-ERCC5 /// ERCC5 / Fold change vs veh, BIVM-ERCC5 /// ERCC5 / RFU, ILF3 / Fold change vs veh, ILF3 / RFU 11762660_at / Fold change /veh 11762660_at / RFU VCAN (11757783_s_at) / Fold change /veh VCAN (11757783_s_at) / RFU DDX43 (11728927_at) / Fold change /veh DDX43 (11728927_at) / RFU KRT8 (11758188_x_at) / Fold change /veh KRT8 (11758188_x_at) / RFU NKD1 (11759106_at) / Fold change /veh NKD1 (11759106_at) / RFU SRD5A1 (11742802_a_at) / Fold change /veh SRD5A1 (11742802_a_at) / RFU TPSAB1 /// TPSB2 (11721975_s_at) / Fold change /veh TPSAB1 /// TPSB2 (11721975_s_at) / RFU GSTM3 (11746129_a_at) / Fold change /veh GSTM3 (11746129_a_at) / RFU IL23R (11737362_x_at) / Fold change /veh IL23R (11737362_x_at) / RFU TMEM51 (11727254_a_at) / Fold change /veh TMEM51 (11727254_a_at) / RFU PIWIL2 (11732686_x_at) / Fold change /veh PIWIL2 (11732686_x_at) / RFU ORM1 (11744905_x_at) / Fold change /veh ORM1 (11744905_x_at) / RFU CCDC152 (11743942_at) / Fold change /veh CCDC152 (11743942_at) / RFU ECM1 (11717891_a_at) / Fold change /veh ECM1 (11717891_a_at) / RFU IL23R (11748794_a_at) / Fold change /veh IL23R (11748794_a_at) / RFU TNFAIP8L3 (11732012_x_at) / Fold change /veh TNFAIP8L3 (11732012_x_at) / RFU MBOAT4 (11741988_at) / Fold change /veh MBOAT4 (11741988_at) / RFU 11764193_at / Fold change /veh 11764193_at / RFU TMEM53 (11763286_at) / Fold change /veh TMEM53 (11763286_at) / RFU MAGEB2 (11727129_at) / Fold change /veh MAGEB2 (11727129_at) / RFU TMEM200A (11744735_a_at) / Fold change /veh TMEM200A (11744735_a_at) / RFU CCDC152 (11751479_a_at) / Fold change /veh CCDC152 (11751479_a_at) / RFU FAM211A (11726209_a_at) / Fold change /veh FAM211A (11726209_a_at) / RFU RGS16 (11746705_a_at) / Fold change /veh RGS16 (11746705_a_at) / RFU VCAN (11755009_s_at) / Fold change /veh VCAN (11755009_s_at) / RFU RHOB (11743442_s_at) / Fold change /veh RHOB (11743442_s_at) / RFU RGS16 (11720943_a_at) / Fold change /veh RGS16 (11720943_a_at) / RFU RGS16 (11720944_at) / Fold change /veh RGS16 (11720944_at) / RFU, VPS4B / Fold change vs veh, VPS4B / RFU, CREB1 / Fold change vs veh, CREB1 / RFU, DNAJC13 / Fold change vs veh, DNAJC13 / RFU, GNAQ / Fold change vs veh, GNAQ / RFU, CDK5R1 / Fold change vs veh, CDK5R1 / RFU, ZRANB3 / Fold change vs veh, ZRANB3 / RFU, CUL4A / Fold change vs veh, CUL4A / RFU, CCNY / Fold change vs veh, CCNY / RFU, UFL1 / Fold change vs veh, UFL1 / RFU, COG3 / Fold change vs veh, COG3 / RFU, DIAPH2 / Fold change vs veh, DIAPH2 / RFU, SKA2 / Fold change vs veh, SKA2 / RFU, AFF3 / Fold change vs veh, AFF3 / RFU, LMF1 / Fold change vs veh, LMF1 / RFU, IPO11 / Fold change vs veh, IPO11 / RFU, DFFB / Fold change vs veh, DFFB / RFU, FOXP1 / Fold change vs veh, FOXP1 / RFU, CARD8 / Fold change vs veh, CARD8 / RFU, STRN3 / Fold change vs veh, STRN3 / RFU, ADK / Fold change vs veh, ADK / RFU, RASSF2 / Fold change vs veh, RASSF2 / RFU, WIPF1 / Fold change vs veh, WIPF1 / RFU, LARP1B / Fold change vs veh, LARP1B / RFU, RASA1 / Fold change vs veh, RASA1 / RFU, RB1 / Fold change vs veh, RB1 / RFU, PPFIA1 / Fold change vs veh, PPFIA1 / RFU, MAT2A / Fold change vs veh, MAT2A / RFU, CCT5 / Fold change vs veh, CCT5 / RFU, WDR92 / Fold change vs veh, WDR92 / RFU, CUX1 / Fold change vs veh, CUX1 / RFU, TTC7A / Fold change vs veh, TTC7A / RFU, TMEM135 / Fold change vs veh, TMEM135 / RFU, DEPTOR / Fold change vs veh, DEPTOR / RFU, CPM / Fold change vs veh, CPM / RFU, DNAJB6 / Fold change vs veh, DNAJB6 / RFU, CACNA2D3 / Fold change vs veh, CACNA2D3 / RFU, DTX4 / Fold change vs veh, DTX4 / RFU, TFCP2 / Fold change vs veh, TFCP2 / RFU, GMCL1 /// GMCL1P1 / Fold change vs veh, GMCL1 /// GMCL1P1 / RFU, AEBP2 / Fold change vs veh, AEBP2 / RFU, SNHG1 /// SNORD22 /// SNORD25 /// SNORD26 /// SNORD27 /// SNORD28 /// SNORD29 /// SNORD31 / Fold change vs veh, SNHG1 /// SNORD22 /// SNORD25 /// SNORD26 /// SNORD27 /// SNORD28 /// SNORD29 /// SNORD31 / Fold change (Aza/veh), C12orf56 (ProbeSet 11735607_a_at) / Fold change (ACY-1035/veh), C12orf56 (ProbeSet 11735607_a_at) / Fold change (Aza/veh), FGFR1OP (ProbeSet 11751329_s_at) / Fold change (ACY-1035/veh), FGFR1OP (ProbeSet 11751329_s_at) / Fold change (Aza/veh), VPS36 (ProbeSet 11739960_a_at) / Fold change (ACY-1035/veh), VPS36 (ProbeSet 11739960_a_at) / RFU SYPL1 (11715823_x_at) / Fold change /veh SYPL1 (11715823_x_at) / RFU IGFBP7 (11715501_s_at) / Fold change /veh IGFBP7 (11715501_s_at) / RFU REEP3 (11722064_at) / Fold change /veh REEP3 (11722064_at) / RFU IGLL1 (11728026_x_at) / Fold change /veh IGLL1 (11728026_x_at): dose or concentration left out as unconfirmed", "conditions": "MV-4-11 cells, 48 hours"}
{"compound": "Nc1ccc(-c2cccs2)cc1NC(=O)c1ccc2c(c1)cc(C1CC1)n2CCN1CCOCC1", "note": "[ACY-1035]", "values": [{"measurement": "Fold change /veh C10orf10 (11716522_x_at)", "result": 1.10}]}
